Reference: patent US5304474A, “Hydrophobic peptide esters and amides” (Board of Regents, The University of Texas System, priority 1991, dated 1994)
Peptide text beside a SMILES is read from it.

Columns and labels:
[1] = system: natural killer cells (NK); conditions: previous experiments (Thiele et al. 1985); cited from earlier work
[2] = system: natural killer cells (NK); assay: NK function: lysis of K562 target cells (51Cr release) after preincubation of lymphocytes with compound; conditions: for NK toxicity / effect on NK function, in words: lymphocytes exposed 15 minutes at room temperature (FIG. 4, FIG. 5)
[3] = Generation of dipeptide methyl esters from amino acid methyl esters by MP or PMN (TLC); format: in vitro ADME, human; conditions: equal concentrations of Leu-OMe, Val-OMe or Phe-OMe added
Description: MP or PMN (prepared as in Example 1) at a concentration of 25×10^6 per ml were suspended in PBS and incubated with 25 mM Leu-OMe for 20 minutes at 22~C. Cell suspensions were then centrifuged at 1000 g for 10 minutes and the supernatants harvested and freeze-dried at -70~C., 100 millitorr atmospheric pressure. In some experiments, Leu-OMe-treated MP or PMN were sonicated to increase the yield of the reaction product. Samples were then extracted with methanol for application to thin layer chromatography (TLC) plates ([…]×20 cm^2, Analtech, Newark, Del.). Following development with chloroform/methanol/acetic acid (19 1:12.5 by volume), 1 cm bands were eluted with methanol, dried under nitrogen, and resuspended in 1 ml PBS. Mass spectra were obtained with a Finnegan Model 4021 automated EI/CI, GC/MS system coupled to an Incos data system. […]
In order to determine whether MP or PMN could generate the relevant dipeptide methyl esters from these amino acid methyl esters, TLC analysis of the supernatants of MP and PMN incubated with these compounds was carried out. […] However, when equal concentrations of Leu-OMe, Val-OMe, or Phe-OMe were added to MP or PMN, the concentrations of Val-Val-OMe generated were 50 to 80% of those found for Leu-Leu-OMe, while Phe-Phe-OMe was detected at only 10-30% of the levels of Leu-Leu-OMe. […]

[4] = Activity and appearance of mice post-injection; format: in vivo, C3H/HeJ mice; conditions: 15-30 minutes post-injection, about 1×10^-3 moles per kg tail-vein
Description: (§1) Leu-Leu-OMe or Leu-Phe-OMe were suspended in PBS, pH 7.4. Then individual C3H/HeJ mice (25 gram size) were administered by tail-vein injection either 2.5×10^-5 moles (6.5 mg) of Leu-Leu-OMe, 2.5×10^-5 moles (7.1 mg) Leu-Phe-OMe, or an equal volume of the PBS diluent, this dose being about 1×10^-3 moles per kg. […] Subsequent to this quiescent period no difference in activity or appearance in the mice was noted. Two hours post-injection, the mice were sacrificed and their spleen cells were assayed for NK function in a standard 4 hour assay against YAC-1 tumor targets. In all mice, total cell recovery ranged […] spleen cells per animal. […] Thus, Leu-Leu-OMe or Leu-Phe-OMe caused a greater than 75% decrease in splenic lytic activity against YAC-1 tumor targets.

[5] = system: splenic NK function (YAC-1 tumor targets); assay: Spleen cell NK function against YAC-1 after tail-vein injection; format: in vivo, C3H/HeJ mice
Description: as §1

[6] = system: [^3 H]Leu-Leu-OMe uptake by PBL (facilitated transport); assay: Competitive inhibition of [3H]Leu-Leu-OMe uptake; format: cell-based, human; conditions: Homo sapiens; unlabeled compound 250 microM; [3H]Leu-Leu-OMe 10 microM (Table 6)
Description: Human peripheral blood lymphocytes (PBL) were incubated in the presence of [^3 H]labeled Leu-Leu-OMe at 22° C. for varying lengths of time. The incubation mixture was then centrifuged through silicone oil to separate the cells from any unbound or non-internalized [^3 HLeu-Leu-OMe. […] At 37° C., levels of [^3 H]Leu-Leu-OMe accumulation by PBL were increased above those seen at 22° C. (see Table 4).

Compound: COC(=O)[C@@H](N)C(C)C [Val-OMe]
- deletion of NK function from human PBM [1]: did not delete NK function from human PBM

Compound: COC(=O)[C@H](Cc1ccccc1)NC(=O)[C@@H](N)Cc1ccccc1 [Phe-Phe-OMe] (H-Phe-Phe-OMe)
- NK toxicity / effect on NK function, in words [2]: less NK toxic than either Leu-Phe-OMe or Phe-Leu-OMe
- concentration generated by MP or PMN, relative to Leu-Leu-OMe [3]: 10-30%

Compound: COC(=O)[C@H](Cc1ccccc1)NC(=O)[C@@H](N)CC(C)C [Leu-Phe-OMe] (H-Leu-Phe-OMe)
- NK Toxicity (LD50) ([2]; concentration which results in 50% loss of human NK function, PBL 15 minutes at 22° C.): 29 micro-M
- NK toxicity / effect on NK function, in words [2]: produced concentration-dependent ablation of NK function at concentrations comparable to those at which Leu-Leu-OMe was active
- activity and appearance post-injection [4]: exhibited decreased activity and an apparent increase in sleep
- Percent lysis of target cells ([5]; E:T 25:1, 2.5×10^-5 moles per mouse tail-vein, 2 hours post-injection, Control 8.29): 3.89%
- Percent lysis of target cells ([5]; E:T 50:1, same dosing, Control 12.88): 4.68%
- Percent lysis of target cells ([5]; E:T 100:1, same dosing, Control 20.60): 6.91%
- Percent lysis of target cells ([5]; E:T 200:1, same dosing, Control 29.29): 11.91%
- decrease in splenic lytic activity against YAC-1 tumor targets ([5]; about 1×10^-3 moles per kg tail-vein): greater than 75%
- inhibition at 250 µM [6]: 72%
